Experiments:
Type in all cases: cell-based
human TLR4 = human TLR4 (Homo sapiens, UniProt O00206+Q9Y6Y9); experiment: Toll-Like Receptor (TLR) screening assay, TLR4; conditions: 10 μM; control LPS
human TLR3 = molecular target: T1, human TLR3 (Homo sapiens, UniProt O15455); experiment: Toll-Like Receptor (TLR) screening assay, TLR3; conditions: 10 μM
T1 sequence (O15455 24-904): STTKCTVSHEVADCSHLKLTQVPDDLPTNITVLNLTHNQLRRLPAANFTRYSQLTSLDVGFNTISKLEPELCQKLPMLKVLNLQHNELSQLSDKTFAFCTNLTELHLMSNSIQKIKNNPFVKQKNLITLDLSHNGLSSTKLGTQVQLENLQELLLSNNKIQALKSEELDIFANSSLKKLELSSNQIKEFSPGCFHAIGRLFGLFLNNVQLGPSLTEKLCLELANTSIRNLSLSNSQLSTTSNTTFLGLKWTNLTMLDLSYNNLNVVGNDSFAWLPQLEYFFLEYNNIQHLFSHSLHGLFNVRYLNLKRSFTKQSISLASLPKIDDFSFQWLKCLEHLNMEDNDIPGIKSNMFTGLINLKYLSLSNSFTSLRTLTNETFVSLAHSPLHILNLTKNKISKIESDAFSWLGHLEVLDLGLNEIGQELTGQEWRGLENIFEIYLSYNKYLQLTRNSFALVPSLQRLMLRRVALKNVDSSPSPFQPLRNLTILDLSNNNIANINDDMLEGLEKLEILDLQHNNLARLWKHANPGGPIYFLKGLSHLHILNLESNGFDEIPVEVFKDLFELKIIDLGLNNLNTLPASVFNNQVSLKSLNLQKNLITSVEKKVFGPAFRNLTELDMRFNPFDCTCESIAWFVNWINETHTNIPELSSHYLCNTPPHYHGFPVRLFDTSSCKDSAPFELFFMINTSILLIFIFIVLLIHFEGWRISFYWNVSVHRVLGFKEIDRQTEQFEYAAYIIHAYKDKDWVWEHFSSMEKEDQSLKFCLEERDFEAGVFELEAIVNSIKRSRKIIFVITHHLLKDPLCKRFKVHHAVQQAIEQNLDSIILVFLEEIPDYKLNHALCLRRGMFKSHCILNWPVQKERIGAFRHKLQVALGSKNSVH

human TLR5 = human TLR5 (Homo sapiens, UniProt O60602); experiment: Toll-Like Receptor (TLR) screening assay, TLR5; conditions: 10 μM
human TLR8 = molecular target: T2, human TLR8 (Homo sapiens, UniProt Q9NR97); experiment: Toll-Like Receptor (TLR) screening assay, TLR8; conditions: 10 μM
T2 sequence (Q9NR97 27-1041): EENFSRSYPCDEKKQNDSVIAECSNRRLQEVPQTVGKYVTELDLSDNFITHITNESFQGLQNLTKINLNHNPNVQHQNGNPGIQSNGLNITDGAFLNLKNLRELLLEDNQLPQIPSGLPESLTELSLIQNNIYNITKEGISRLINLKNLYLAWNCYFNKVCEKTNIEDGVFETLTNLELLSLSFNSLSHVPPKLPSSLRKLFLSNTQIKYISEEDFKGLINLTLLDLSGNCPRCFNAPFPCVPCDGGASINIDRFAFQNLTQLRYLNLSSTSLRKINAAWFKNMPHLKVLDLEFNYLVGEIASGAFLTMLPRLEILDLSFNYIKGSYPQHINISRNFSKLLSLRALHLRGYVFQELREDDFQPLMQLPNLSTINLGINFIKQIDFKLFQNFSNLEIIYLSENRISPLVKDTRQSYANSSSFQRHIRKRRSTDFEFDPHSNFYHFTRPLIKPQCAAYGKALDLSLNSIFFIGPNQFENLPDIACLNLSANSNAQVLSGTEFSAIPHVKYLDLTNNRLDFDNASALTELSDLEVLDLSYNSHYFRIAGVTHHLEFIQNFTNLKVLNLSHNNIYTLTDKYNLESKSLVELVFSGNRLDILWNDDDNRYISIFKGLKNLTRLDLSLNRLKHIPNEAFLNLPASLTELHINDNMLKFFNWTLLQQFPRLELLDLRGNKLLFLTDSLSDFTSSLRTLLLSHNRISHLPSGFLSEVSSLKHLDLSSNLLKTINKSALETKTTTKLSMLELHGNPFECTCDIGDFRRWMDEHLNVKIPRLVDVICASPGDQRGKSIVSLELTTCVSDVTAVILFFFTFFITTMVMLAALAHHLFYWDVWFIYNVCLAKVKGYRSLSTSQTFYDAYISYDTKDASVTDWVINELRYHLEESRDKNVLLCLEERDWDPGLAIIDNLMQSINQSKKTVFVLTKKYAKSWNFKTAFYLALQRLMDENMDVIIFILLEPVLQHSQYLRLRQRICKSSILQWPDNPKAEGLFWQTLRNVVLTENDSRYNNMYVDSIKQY

[1] = test system: human toll-like receptors (TLR); experiment: Toll-like receptor test, overall statement; conditions: 10 μM
Excerpt: While the role of HMGB1 in cancer biology is complex, the influence of spermine on this danger signaling biomolecule is well established. […] It could be that the tumor's propensity to secrete higher concentrations of spermine allow them to hide from the immune system by negating HMGB1 ability to stimulate an immune response. Therefore, the balance between pro-immune effects of HMGB1 and the counter-immune effects of spermine mediated through this pathway may be shifted by using PBT.

[2] = test system: cultured cancer cell types (including MDA-MB-231, PC-3, A375 and SK-OV-3 among others); experiment: activity against cultured cancer cells in combination with DFMO
Excerpt: Cancer cells can circumvent the ability of drugs such as α-difluoromethylornithine (DFMO) based on inhibition of polyamine biosynthesis, from completely depleting their internal polyamines by the importation of these molecules from external sources. […] The resulting novel two-drug combination therapy targeting cellular polyamine metabolism has shown exceptional efficacy against cutaneous squamous cell carcinomas (SCCs) in a transgenic ornithine decarboxylase (ODC) mouse model developed by us for the study of skin cancer. […] The availability of a potent polyamine transport inhibitor allows, for the first time, for a real test of the hypothesis that starving cells of polyamines will lead to objective clinical response. This therapy is molecularly-targeted, relatively nontoxic at the proposed dose, and consists of both a very well-characterized drug and a member of a novel chemical class.

Sequence of human TLR4 (O00206 24-839): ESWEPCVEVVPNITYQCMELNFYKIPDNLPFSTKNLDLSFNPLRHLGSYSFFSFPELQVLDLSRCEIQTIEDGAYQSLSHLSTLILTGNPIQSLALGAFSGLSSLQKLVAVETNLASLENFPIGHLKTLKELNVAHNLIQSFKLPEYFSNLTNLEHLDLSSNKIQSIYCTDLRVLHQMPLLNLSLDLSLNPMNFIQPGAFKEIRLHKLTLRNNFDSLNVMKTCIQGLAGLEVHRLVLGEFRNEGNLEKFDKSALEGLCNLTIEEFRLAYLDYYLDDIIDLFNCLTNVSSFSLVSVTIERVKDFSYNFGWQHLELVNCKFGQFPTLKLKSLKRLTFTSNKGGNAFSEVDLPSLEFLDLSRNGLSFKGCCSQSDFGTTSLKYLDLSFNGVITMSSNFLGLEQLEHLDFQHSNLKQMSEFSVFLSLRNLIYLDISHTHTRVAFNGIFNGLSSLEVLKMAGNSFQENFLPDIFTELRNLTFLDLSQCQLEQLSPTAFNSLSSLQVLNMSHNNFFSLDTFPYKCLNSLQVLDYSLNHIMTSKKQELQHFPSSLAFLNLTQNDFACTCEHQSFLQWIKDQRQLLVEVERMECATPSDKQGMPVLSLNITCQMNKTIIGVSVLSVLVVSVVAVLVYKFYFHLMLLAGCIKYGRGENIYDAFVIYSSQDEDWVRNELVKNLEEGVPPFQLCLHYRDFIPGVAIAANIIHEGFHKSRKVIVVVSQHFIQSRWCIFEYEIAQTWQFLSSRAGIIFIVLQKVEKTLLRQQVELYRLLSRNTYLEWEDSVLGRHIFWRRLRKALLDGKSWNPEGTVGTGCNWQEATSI
Sequence of human TLR4 (Q9Y6Y9 17-160 limits assumed): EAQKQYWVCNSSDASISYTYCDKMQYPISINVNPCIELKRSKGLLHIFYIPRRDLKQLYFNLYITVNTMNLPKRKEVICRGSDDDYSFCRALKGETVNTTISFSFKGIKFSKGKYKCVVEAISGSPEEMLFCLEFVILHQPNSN
Sequence of human TLR5 (O60602 21-858): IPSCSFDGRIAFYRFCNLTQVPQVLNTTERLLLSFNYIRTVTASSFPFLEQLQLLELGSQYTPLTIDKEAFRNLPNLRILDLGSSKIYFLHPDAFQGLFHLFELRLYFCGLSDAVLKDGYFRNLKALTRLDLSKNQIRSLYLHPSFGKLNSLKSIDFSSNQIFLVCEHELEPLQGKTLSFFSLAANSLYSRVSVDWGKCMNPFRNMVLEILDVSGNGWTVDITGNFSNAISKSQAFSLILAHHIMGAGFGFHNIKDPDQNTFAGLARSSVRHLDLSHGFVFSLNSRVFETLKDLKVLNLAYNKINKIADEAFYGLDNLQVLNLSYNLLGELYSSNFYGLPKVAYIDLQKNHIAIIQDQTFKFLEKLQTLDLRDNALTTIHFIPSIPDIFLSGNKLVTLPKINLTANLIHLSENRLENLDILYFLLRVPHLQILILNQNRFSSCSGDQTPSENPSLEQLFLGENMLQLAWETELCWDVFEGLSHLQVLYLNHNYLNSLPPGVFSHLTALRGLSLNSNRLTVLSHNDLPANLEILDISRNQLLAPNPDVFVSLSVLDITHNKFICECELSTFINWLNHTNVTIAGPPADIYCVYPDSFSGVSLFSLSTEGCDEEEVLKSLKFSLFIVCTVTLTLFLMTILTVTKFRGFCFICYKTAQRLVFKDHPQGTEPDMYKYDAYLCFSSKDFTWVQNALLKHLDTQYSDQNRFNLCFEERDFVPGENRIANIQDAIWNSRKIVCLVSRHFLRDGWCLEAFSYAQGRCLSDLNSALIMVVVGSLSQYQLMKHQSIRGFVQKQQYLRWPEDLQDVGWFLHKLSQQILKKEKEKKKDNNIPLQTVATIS

With `CCCCCCCCCCCCCCCC(=O)NCCCC[C@@H](N)C(=O)NCCCNCCCCNCCCN` [AMXT 1501, D-Lys(C16acyl)-Spm] the “stimulatory effect on TLR4” value (human TLR4) was 16 % of control, the “activity on TLR3” value (human TLR3) was “no significant activity” and the “activity on TLR5” value (human TLR5) was “no significant activity”. For the same compound, the “activity on TLR8” value (human TLR8) was “no significant activity”, the “stimulatory effect on human toll-like receptors” value [1] was “no significant stimulatory effect” and the “nature of cell culture effects” value [2] was “cytostatic and not cytotoxic”. The “potency compared with AMXT 1426” value ([2]; in combination with DFMO) was “several orders of magnitude higher potency”.

Source: patent US20150050299A1, “METHODS FOR ENHANCING IMMUNE RESPONSE” (priority 2010, published 2015)
